Laboratory results taken from patent publication US20220273659A1, “HETEROCYCLIC COMPOUNDS AS KINASE INHIBITORS” (NUVATION BIO INC., priority 2019, published 2022).

Experiments:
[1] = molecular target: T1, PI3Kδ kinase (Homo sapiens, UniProt O00329); assay: PI3Kδ kinase assay (ADP-Glo, Reaction Biology); type: biochemical
T1 construct: purchased Reaction Biology Corporation (assay service)
Procedure: IC50 values of compounds against the PI3Kδ kinase were determined by an assay performed by Reaction Biology Corporation (Malvern, Pa.). Briefly, this assay was conducted in buffer (Tris-HCl 40 mM (pH7.5), Orthovanadate 3 mM, MgCl2 20 mM, DTT 2 mM, CHAPS 0.05%, DMSO 1%). PI3Kδ kinase was added to the reaction solution and mixed gently. The test compounds in 100% DMSO (at specific solutions) were mixed with the kinase reaction mixture to achieve the final compounds at pre-defined concentrations (e.g., range −0.5 nM to 100 μM) by Acoustic technology (Echo550; nanoliter range). After incubating for 10 min at room temp, ATP was added into the reaction mixture to initiate the reaction followed by a 30-min incubation at 30° C. After quenching the reaction with ADP-Glo reagent, the plates were incubated for 40 min. The Detection Mixture was added, and the plate was incubated for an additional 30 min. At the end of incubation, luminescence was measured. For data analysis, the luminescence was converted into μM ADP production based on ADP standard curves. The nonlinear regression to obtain the standard curve and IC50 values was performed using GraphPad Prism (GraphPad Software, Inc., San Diego, Calif.).

[2] = system: MCF-7 breast adenocarcinoma cells; assay: Cancer cell proliferation assay, single agent (cell viability); type: cell-based; conditions: Homo sapiens, MCF7, Table 4; Rb positive; treatment 144 Hr with medium change at 72 Hr; Cell Titer-Glo or resazurin
In short: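 Cells seeded day 1, then exposed on day 2 to 7–9 compound concentrations (e.g. 1.1 nM–10 μM); BT-549 for 24 h, MCF-7 and DU4475 for 144 h with medium change at 72 h. Viability by CellTiter-Glo or resazurin; IC50 from variable-slope sigmoidal fit.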

[3] = molecular target: T2, CDK6 (Homo sapiens, UniProt Q00534); assay: In vitro kinase inhibition IC50, luminescence (ADP Glo), retinoblastoma substrate; type: biochemical; conditions: read-out: CDK6/D1 IC50
T2 construct: purchased Invitrogen PR8422B
T2 sequence (Q00534 whole entry): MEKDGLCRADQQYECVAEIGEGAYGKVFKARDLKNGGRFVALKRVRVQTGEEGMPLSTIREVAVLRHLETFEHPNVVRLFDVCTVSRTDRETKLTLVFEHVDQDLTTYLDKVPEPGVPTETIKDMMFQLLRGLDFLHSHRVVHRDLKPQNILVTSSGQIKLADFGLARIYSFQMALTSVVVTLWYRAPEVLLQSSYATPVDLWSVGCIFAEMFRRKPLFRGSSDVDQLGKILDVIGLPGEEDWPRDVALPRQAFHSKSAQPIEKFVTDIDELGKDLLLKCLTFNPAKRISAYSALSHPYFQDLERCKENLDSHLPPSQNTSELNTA
T2 sequence (P24385 whole entry partner): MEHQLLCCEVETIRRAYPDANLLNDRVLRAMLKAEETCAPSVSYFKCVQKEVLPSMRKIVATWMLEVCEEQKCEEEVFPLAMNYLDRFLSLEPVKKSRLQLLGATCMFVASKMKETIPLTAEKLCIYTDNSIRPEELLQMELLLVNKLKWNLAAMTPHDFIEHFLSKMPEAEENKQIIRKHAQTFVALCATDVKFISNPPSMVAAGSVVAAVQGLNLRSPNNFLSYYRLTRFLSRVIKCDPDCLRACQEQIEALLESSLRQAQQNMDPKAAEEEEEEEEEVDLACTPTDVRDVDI
In short: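 Recombinant CDK6 (5 nM) with retinoblastoma substrate (1 μM) and 25 μM ATP, compound at final 0.1–200 nM, incubated 2 h at room temperature. ADP formed detected by ADP-Glo luminescence. IC50 from four-parameter logistic fit of percent inhibition.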

[4] = molecular target: T3, CDK4 (Homo sapiens, UniProt P11802); assay: as above; type: biochemical; conditions: read-out: CDK4/D1 IC50
T3 construct: purchased Invitrogen PR8064A
T3 sequence (P11802 whole entry): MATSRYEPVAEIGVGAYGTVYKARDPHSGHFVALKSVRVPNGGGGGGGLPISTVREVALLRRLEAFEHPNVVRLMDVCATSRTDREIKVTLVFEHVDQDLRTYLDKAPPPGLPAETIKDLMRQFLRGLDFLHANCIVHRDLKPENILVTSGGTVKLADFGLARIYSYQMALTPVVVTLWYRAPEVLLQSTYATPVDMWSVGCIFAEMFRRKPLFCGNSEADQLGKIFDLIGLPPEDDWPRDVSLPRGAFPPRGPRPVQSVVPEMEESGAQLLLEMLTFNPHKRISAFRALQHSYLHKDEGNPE
T3 sequence (P24385 whole entry partner): as the sequence (P24385 whole entry partner) above
In short: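 CDK4 enzyme (5 nM, Invitrogen) was combined with test compound and a mix of retinoblastoma substrate (1 μM) plus ATP (25 μM) in kinase buffer, 30 μL/well in 96-well half area white plates. After 2H at room temperature, ADP Glo reagent stopped the reaction for 45 min, then detection reagent was added and luminescence was read.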

[5] = molecular target: T4, FMS kinase (Homo sapiens, UniProt P07333); assay: LanthaScreen Eu Kinase Binding Assay (ATP, fluorescent-PolyGT substrate); type: biochemical
T4 construct: purchased Invitrogen (Life Technologies)
T4 sequence (P07333 20-972): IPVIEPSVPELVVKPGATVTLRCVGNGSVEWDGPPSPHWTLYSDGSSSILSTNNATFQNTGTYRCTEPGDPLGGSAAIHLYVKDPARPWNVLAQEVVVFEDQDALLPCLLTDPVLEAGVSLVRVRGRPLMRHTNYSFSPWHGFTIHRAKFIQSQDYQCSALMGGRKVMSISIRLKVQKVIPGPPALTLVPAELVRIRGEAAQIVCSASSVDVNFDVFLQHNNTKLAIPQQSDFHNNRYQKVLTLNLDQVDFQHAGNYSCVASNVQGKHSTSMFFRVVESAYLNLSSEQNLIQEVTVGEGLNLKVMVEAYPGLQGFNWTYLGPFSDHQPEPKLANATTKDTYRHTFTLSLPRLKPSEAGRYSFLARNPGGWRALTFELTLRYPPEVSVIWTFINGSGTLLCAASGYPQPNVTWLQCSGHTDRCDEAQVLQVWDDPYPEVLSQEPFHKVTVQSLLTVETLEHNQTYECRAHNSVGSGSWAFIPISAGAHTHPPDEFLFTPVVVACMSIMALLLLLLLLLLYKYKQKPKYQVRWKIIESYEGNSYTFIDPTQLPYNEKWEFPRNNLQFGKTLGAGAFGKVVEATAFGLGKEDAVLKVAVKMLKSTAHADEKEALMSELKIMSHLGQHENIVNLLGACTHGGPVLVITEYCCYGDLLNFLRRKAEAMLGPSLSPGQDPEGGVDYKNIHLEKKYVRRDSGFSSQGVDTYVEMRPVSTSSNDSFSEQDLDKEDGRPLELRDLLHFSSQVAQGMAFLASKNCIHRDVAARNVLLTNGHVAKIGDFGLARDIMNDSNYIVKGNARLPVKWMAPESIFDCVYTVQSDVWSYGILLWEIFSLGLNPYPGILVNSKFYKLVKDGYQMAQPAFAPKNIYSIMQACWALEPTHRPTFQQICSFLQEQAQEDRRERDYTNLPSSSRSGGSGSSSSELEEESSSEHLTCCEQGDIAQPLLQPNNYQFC
Procedure: IC50 values of compounds against FMS kinase were determined by LanthaScreen™ Eu Kinase Binding Assay at Invitrogen (Life Technologies Grand Island, N.Y.) where total reaction volume was 10 μL in low-volume 384-well plates (#4511, Corning). Serially diluted compounds (3-fold) were incubated with kinase (1.25 nM) for 10 min, following which a mixture of ATP (10 μM) (#A1852, Sigma, St-Louis, Mo.) and fluorescent-PolyGT substrate (200 nM) (#PV3610, Invitrogen, Life Technologies Grand Island, N.Y.) was added and incubated in dark at room temperature for 1H. After 1H, 10 μL stop solution containing Terbium labeled antibody (4 nM) (#PV3529, Invitrogen, Life Technologies Grand Island, N.Y.) and EDTA (#E5134, Sigma, St-Louis, Mo.) (20 mM) in TR-FRET dilution buffer (#PV3574, Invitrogen, Life Technologies Grand Island, N.Y.) was added. Readings were taken in a Synergy Neo Plate reader (BioTek, Winooski) at single excitation of 340 nm and Dual emission at 495 nm and 520 nm respectively.
The following equations were used for LanthaScreen Eu Kinase Binding Assay Data Analysis. Percent inhibition (100-% activity) was fitted to the “four-parameter logistic model” in XLfit for determination of IC50 values.

T1 sequence (O00329 whole entry): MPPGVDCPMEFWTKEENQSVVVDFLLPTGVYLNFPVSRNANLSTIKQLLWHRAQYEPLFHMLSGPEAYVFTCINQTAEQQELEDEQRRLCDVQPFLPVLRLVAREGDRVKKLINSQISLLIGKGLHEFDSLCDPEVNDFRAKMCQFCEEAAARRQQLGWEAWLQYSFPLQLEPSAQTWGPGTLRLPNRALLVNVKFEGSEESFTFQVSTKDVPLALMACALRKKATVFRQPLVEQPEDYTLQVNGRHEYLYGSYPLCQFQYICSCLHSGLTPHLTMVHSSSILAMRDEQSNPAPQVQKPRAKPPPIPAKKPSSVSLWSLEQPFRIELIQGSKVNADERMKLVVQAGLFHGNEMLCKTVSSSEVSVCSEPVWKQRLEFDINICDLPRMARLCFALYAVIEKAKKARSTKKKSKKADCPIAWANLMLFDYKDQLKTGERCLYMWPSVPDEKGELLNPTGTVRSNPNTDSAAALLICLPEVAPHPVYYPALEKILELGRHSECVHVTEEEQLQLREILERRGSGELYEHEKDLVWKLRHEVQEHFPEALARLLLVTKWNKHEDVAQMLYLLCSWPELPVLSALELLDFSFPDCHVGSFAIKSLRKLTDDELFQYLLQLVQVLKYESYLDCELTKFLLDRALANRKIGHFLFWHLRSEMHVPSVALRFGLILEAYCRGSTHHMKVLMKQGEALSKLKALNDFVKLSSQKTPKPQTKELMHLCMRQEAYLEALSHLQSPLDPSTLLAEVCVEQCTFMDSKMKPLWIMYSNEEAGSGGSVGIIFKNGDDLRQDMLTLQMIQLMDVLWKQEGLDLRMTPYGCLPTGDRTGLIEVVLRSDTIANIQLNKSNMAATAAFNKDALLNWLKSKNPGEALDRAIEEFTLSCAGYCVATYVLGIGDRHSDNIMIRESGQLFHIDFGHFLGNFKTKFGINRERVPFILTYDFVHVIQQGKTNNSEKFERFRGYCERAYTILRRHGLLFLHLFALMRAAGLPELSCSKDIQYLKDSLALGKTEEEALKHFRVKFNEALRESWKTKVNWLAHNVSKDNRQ
T1 sequence (P27986 whole entry partner): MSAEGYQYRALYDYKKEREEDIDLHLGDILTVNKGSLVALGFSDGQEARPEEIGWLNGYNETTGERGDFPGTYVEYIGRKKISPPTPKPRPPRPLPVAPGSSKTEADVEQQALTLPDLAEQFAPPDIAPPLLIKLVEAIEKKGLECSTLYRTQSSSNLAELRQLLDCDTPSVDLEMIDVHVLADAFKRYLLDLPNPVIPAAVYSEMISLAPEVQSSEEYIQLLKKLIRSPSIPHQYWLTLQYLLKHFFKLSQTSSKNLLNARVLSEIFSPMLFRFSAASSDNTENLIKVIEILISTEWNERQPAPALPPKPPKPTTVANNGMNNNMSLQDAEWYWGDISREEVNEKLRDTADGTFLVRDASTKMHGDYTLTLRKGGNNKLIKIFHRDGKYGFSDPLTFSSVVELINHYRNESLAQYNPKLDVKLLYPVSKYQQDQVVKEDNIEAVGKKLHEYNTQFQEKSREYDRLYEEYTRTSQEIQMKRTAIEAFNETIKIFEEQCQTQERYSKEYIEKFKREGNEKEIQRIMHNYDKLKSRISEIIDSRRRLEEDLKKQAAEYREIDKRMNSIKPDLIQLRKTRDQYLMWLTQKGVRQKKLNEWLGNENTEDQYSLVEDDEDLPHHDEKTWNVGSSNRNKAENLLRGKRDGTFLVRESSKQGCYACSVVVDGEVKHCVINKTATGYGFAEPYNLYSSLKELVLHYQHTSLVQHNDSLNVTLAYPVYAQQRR

N#Cc1cc2cnc(Nc3ccc(C4CCNCC4)c(F)c3)nc2n(C2CCCC2)c1=O [Compound No. 43, 8-cyclopentyl-2-((3-fluoro-4-(piperidin-4-yl)phenyl)amino)-7-oxo-7,8-dihydropyrido[2,3-d]pyrimidine-6-carbonitrile]
IC50 [1]: 180 nM
IC50 [2]: 180 nM
IC50 [3]: 3 nM
IC50 [4]: 5 nM
IC50 [5]: 1.5 nM

CC(C)N1CCc2cc(Nc3ncc4cc(C#N)c(=O)n(C5CCCC5)c4n3)ccc2C1 [Compound No. 45, 8-cyclopentyl-2-((2-isopropyl-1,2,3,4-tetrahydroisoquinolin-6-yl)amino)-7-oxo-7,8-dihydropyrido[2,3-d]pyrimidine-6-carbonitrile]
IC50 [1]: 490 nM
IC50 [2]: 428 nM
IC50 [3]: 19 nM
IC50 [4]: 4.5 nM
IC50 [5]: 2 nM

CN1CCc2cc(Nc3ncc4cc(C#N)c(=O)n(C5CCCC5)c4n3)ccc2C1 [Compound No. 38, 8-cyclopentyl-2-((2-methyl-1,2,3,4-tetrahydroisoquinolin-6-yl)amino)-7-oxo-7,8-dihydropyrido[2,3-d]pyrimidine-6-carbonitrile]
IC50 [1]: 384 nM
IC50 [2]: 452 nM
IC50 [3]: 1 nM
IC50 [4]: 1.5 nM
IC50 [5]: 5.5 nM

CN(C)CC1Cc2ccc(Nc3ncc4cc(C#N)c(=O)n(C5CCCC5)c4n3)cc2C(=O)N1 (stereo not drawn) [Compound No. 22, 8-cyclopentyl-2-((3-((dimethylamino)methyl)-1-oxo-1,2,3,4-tetrahydroisoquinolin-7-yl)amino)-7-oxo-7,8-dihydropyrido[2,3-d]pyrimidine-6-carbonitrile]
IC50 [1]: 43 nM
IC50 [2]: 1020 nM
IC50 [3]: 65 nM
IC50 [4]: > 200 nM
IC50 [5]: < 1 nM

CN1CCc2ccc(Nc3ncc4cc(C#N)c(=O)n(C5CCCC5)c4n3)cc2C1 [Compound No. 34, 8-cyclopentyl-2-((2-methyl-1,2,3,4-tetrahydroisoquinolin-7-yl)amino)-7-oxo-7,8-dihydropyrido[2,3-d]pyrimidine-6-carbonitrile]
IC50 [1]: 1230 nM
IC50 [2]: 315 nM
IC50 [3]: 9 nM
IC50 [4]: 6.5 nM
IC50 [5]: 5.2 nM

CN1CCN(c2ccc(Nc3ncc4cc(C#N)c(=O)n(C5CCCC5)c4n3)cc2F)CC1 [Compound No. 36, 8-cyclopentyl-2-((3-fluoro-4-(4-methylpiperazin-1-yl)phenyl)amino)-7-oxo-7,8-dihydropyrido[2,3-d]pyrimidine-6-carbonitrile]
IC50 [1]: 1030 nM
IC50 [2]: 315 nM
IC50 [3]: 1 nM
IC50 [4]: 1 nM
IC50 [5]: 6.5 nM

CN(C)Cc1c[nH]c2cc(Nc3ncc4cc(C#N)c(=O)n(C5CCCC5)c4n3)ccc12 [Compound No. 21, 8-cyclopentyl-2-((3-((dimethylamino)methyl)-1H-indol-6-yl)amino)-7-oxo-7,8-dihydropyrido[2,3-d]pyrimidine-6-carbonitrile]
IC50 [1]: 1010 nM
IC50 [2]: 238 nM
IC50 [3]: 2 nM
IC50 [4]: 11 nM
IC50 [5]: 2.5 nM

CN1CCN(CCCn2cc(Nc3ncc4cc(C#N)c(=O)n(C5CCCC5)c4n3)cn2)CC1 [Compound 56]
IC50 [1]: > 30000 nM
IC50 [4]: > 200 nM
IC50 [5]: > 5000 nM

CN(C)C1CCN(c2ccc(Nc3ncc4cc(C#N)c(=O)n(C5CCCC5)c4n3)cc2F)CC1 [Compound No. 44, 8-cyclopentyl-2-((4-(4-(dimethylamino)piperidin-1-yl)-3-fluorophenyl)amino)-7-oxo-7,8-dihydropyrido[2,3-d]pyrimidine-6-carbonitrile]
IC50 [1]: 95 nM
IC50 [2]: 95 nM
IC50 [3]: 1 nM
IC50 [4]: 2 nM
IC50 [5]: 2.5 nM

CN1CCN(c2ccc(Nc3ncc4cc(C#N)c(=O)n(Cc5ccccc5)c4n3)cc2)CC1 [Compound No. 32, 8-benzyl-2-((4-(4-methylpiperazin-1-yl)phenyl)amino)-7-oxo-7,8-dihydropyrido[2,3-d]pyrimidine-6-carbonitrile]
IC50 [1]: 251 nM
IC50 [2]: 2010 nM
IC50 [3]: 7 nM
IC50 [4]: 1 nM
IC50 [5]: 3.5 nM

N#Cc1cc2cnc(Nc3ccc(N4CCC(O)CC4)c(F)c3)nc2n(C2CCCC2)c1=O [Compound No. 49, 8-cyclopentyl-2-((3-fluoro-4-(4-hydroxypiperidin-1-yl)phenyl)amino)-7-oxo-7,8-dihydropyrido[2,3-d]pyrimidine-6-carbonitrile]
IC50 [1]: 4.3 nM
IC50 [2]: 4440 nM
IC50 [3]: 4 nM
IC50 [4]: 9.1 nM
IC50 [5]: 1 nM

CN1CCN(c2ccc(Nc3ncc4cc(C#N)c(=O)n([C@H]5CC[C@H](C)CC5)c4n3)cc2)CC1 [Compound No. 1, 8-((1r,4r)-4-methylcyclohexyl)-2-((4-(4-methylpiperazin-1-yl)phenyl)amino)-7-oxo-7,8-dihydropyrido[2,3-d]pyrimidine-6-carbonitrile]
IC50 [1]: 389 nM
IC50 [2]: 8060 nM
IC50 [3]: 1 nM
IC50 [4]: 2 nM
IC50 [5]: < 300 nM

CN1CCN(C(=O)Cn2cc(Nc3ncc4cc(C#N)c(=O)n(C5CCCC5)c4n3)cn2)CC1 [Compound 58]
IC50 [1]: > 30000 nM
IC50 [4]: > 200 nM
IC50 [5]: 4520 nM

N#Cc1cc2cnc(Nc3cccc(C(N)=O)c3)nc2n(C2CCCC2)c1=O [Compound No. 5, 3-((6-cyano-8-cyclopentyl-7-oxo-7,8-dihydropyrido[2,3-d]pyrimidin-2-yl)amino)benzamide]
IC50 [1]: 444 nM
IC50 [3]: 48 nM
IC50 [4]: 212 nM
IC50 [5]: 1 nM

N#Cc1cc2cnc(Nc3ccc(N4CCNCC4=O)cc3)nc2n(C2CCCC2)c1=O [Compound No. 12, 8-cyclopentyl-7-oxo-2-((4-(2-oxopiperazin-1-yl)phenyl)amino)-7,8-dihydropyrido[2,3-d]pyrimidine-6-carbonitrile]
IC50 [1]: 1330 nM
IC50 [2]: 2500 nM
IC50 [5]: 0.4 nM

CCN(CC)CCOc1ccc(Nc2ncc3cc(C#N)c(=O)n(C4CCCC4)c3n2)cc1 [Compound No. 41, 8-cyclopentyl-2-((4-(2-(diethylamino)ethoxy)phenyl)amino)-7-oxo-7,8-dihydropyrido[2,3-d]pyrimidine-6-carbonitrile]
IC50 [1]: 405 nM
IC50 [2]: 164 nM
IC50 [3]: 1 nM
IC50 [4]: 5.5 nM
IC50 [5]: < 1 nM

CN(C)C1Cc2ccc(Nc3ncc4cc(C#N)c(=O)n(C5CCCC5)c4n3)cc2C1 (stereo not drawn) [Compound No. 47, 8-cyclopentyl-2-((2-(dimethylamino)-2,3-dihydro-1H-inden-5-yl)amino)-7-oxo-7,8-dihydropyrido[2,3-d]pyrimidine-6-carbonitrile]
IC50 [1]: 345 nM
IC50 [2]: 345 nM
IC50 [3]: 4 nM
IC50 [4]: 9.5 nM
IC50 [5]: 2.5 nM

N#Cc1cc2cnc(Nc3ccc(N4CCNCC4)cc3)nc2n(C2CCc3ccccc32)c1=O (stereo not drawn) [Compound No. 42, 8-(2,3-dihydro-1H-inden-1-yl)-7-oxo-2-((4-(piperazin-1-yl)phenyl)amino)-7,8-dihydropyrido[2,3-d]pyrimidine-6-carbonitrile]
IC50 [1]: 651 nM
IC50 [2]: 713 nM
IC50 [3]: 12 nM
IC50 [4]: 57 nM
IC50 [5]: 4 nM

N#Cc1cc2cnc(Nc3cccc(S(N)(=O)=O)c3)nc2n(C2CCCC2)c1=O [Compound No. 3, 3-((6-cyano-8-cyclopentyl-7-oxo-7,8-dihydropyrido[2,3-d]pyrimidin-2-yl)amino)benzenesulfonamide]
IC50 [1]: 130 nM
IC50 [3]: 14 nM
IC50 [4]: 12 nM
IC50 [5]: 35 nM
